The text below walks through data of article PMC12848076, “Identification of two odorant receptors tuned to alarm pheromone compounds in the honey bee Apis mellifera” (Communications Biology, 2025).

Marks after values point to notes of the source that are not given here.

What all share (format): cell-based
The target in experiment [1] is T1, AmelOR109 (Apis mellifera, UniProt A0A7M6UWX9).
T1 construct: gene Or109; full-length ORF, codon-optimized, pUAST.attB at 86F8; expressed in ab3A OSNs of D. melanogaster lacking OR22a/OR22b (empty neuron); endogenous Drosophila Orco as co-receptor; with Odorant receptor coreceptor
T1 sequence (A0A7M6UWX9 1-390): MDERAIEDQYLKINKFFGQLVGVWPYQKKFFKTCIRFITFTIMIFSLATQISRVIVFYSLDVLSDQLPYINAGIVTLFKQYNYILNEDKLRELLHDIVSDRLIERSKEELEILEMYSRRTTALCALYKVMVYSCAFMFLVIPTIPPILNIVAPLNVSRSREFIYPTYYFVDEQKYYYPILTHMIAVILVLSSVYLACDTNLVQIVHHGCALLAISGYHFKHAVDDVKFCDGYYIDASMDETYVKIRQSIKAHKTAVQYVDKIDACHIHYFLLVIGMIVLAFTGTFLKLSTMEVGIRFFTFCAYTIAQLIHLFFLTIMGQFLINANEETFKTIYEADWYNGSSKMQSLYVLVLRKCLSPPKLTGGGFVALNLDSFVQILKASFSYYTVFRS
T1 sequence (Q9VNB5 1-486 partner): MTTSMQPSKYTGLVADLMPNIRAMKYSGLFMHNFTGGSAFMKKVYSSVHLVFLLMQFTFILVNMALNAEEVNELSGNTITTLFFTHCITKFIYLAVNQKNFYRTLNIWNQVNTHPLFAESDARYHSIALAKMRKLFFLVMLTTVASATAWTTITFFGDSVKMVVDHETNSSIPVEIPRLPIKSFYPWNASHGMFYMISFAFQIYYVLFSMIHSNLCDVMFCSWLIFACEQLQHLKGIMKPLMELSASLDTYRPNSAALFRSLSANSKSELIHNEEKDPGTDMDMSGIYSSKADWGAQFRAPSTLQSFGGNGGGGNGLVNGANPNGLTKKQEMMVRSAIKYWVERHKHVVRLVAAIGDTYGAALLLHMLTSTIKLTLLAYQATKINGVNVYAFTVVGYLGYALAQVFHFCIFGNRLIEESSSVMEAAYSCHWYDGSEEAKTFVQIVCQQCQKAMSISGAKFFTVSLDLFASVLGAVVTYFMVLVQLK
As to the kind of experiment: single sensillum recording, ab3A OSN. As to conditions: agonist; 1000 µg on filter paper; vs mineral oil.

Experiment [2] addresses T1, AmelOR109. Description: single sensillum recording, ab3A OSN, dose-response. As to conditions: agonist; estimated airborne amount in stimulus, not a concentration; vs mineral oil; full curve only in Figure 5B.
The target of experiment [3] is T1, AmelOR109. As to the kind of experiment: transcuticular calcium imaging (GCaMP6s), ab3A OSN. The settings on record: agonist; 1000 µg on filter paper; vs mineral oil.

With `CCC(C)=O` [2-butanone], the spikes per second entry at AmelOR109 [1] is “AmelOR109 was activated by multiple compounds in the panel, including 2-butanone”.

As to `CC(=O)OCc1ccccc1` [benzyl acetate], on AmelOR109 [2], the “dose of statistical significance” value is 390 pmol.

On to `CCCC(=O)OCC` [ethyl butyrate], for which the “dose of statistical significance” value at AmelOR109 [2] was 47000 pmol.

`CC(C)=CCC/C(C)=C/C(=O)O` [geranic acid]: the ΔF/F0 result at AmelOR109 [3] is “two compounds from the aggregation pheromone were strongly active: geranic acid”.

`CC(=O)OCCC(C)C` [isopentyl acetate]: the “dose of statistical significance” value on AmelOR109 [2] was 2700 pmol.

On to `CCCCCCCCOC(C)=O` [octyl acetate], for which the “dose of statistical significance” value at AmelOR109 [2] is 15000 pmol.
